According to patent US6462038B1, “Androgen receptor modulator compounds and methods” (Ligand Pharmaceuticals, Inc., priority 1999, dated 2002):
Read-outs that look alike come from different tables or passages of the source.

What was measured:
Assay type in all cases: cell-based
PR [1] = target: T1, PR (Homo sapiens, UniProt P06401); assay: co-transfection assay, PR antagonist (in presence of progesterone)
T1 construct: expressed in transfected cells; host or cells: CV-1 cells
T1 sequence (P06401 1-933): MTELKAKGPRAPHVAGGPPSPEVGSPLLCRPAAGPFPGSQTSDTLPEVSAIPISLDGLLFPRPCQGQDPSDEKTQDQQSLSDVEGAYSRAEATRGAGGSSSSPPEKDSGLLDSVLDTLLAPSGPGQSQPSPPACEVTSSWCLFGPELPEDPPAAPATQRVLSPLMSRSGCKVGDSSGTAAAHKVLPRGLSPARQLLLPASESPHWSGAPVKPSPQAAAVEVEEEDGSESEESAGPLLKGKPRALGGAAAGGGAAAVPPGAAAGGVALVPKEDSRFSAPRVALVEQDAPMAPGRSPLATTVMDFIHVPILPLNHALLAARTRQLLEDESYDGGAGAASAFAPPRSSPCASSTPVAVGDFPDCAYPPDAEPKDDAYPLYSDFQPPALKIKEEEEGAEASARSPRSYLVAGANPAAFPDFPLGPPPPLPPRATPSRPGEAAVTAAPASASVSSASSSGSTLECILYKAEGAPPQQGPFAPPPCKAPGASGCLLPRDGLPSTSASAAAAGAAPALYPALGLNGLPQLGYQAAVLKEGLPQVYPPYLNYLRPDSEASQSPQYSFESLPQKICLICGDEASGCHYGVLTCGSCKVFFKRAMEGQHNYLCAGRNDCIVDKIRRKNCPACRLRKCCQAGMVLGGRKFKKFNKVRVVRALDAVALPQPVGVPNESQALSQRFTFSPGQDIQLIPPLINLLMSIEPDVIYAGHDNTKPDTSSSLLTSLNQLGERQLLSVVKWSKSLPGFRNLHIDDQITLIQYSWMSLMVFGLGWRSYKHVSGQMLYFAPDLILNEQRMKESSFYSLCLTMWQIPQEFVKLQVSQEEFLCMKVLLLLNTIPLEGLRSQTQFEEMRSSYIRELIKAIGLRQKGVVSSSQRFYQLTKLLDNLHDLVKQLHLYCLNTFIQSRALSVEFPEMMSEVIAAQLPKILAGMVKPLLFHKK
Experimental: (§1) CV-1 cells (African green monkey kidney fibroblasts) were cultured in the presence of Dulbecco's Modified Eagle Medium (DMEM) supplemented with 10% charcoal resin-stripped fetal bovine serum (CH-FBS) then transferred to 96-well microtiter plates one day prior to transfection.
(§2) Three to four replicates were used for each sample.
(§3) After 40 hours, the cells were washed with PBS, lysed with a Triton X-100-based buffer and assayed for LUC and β-Gal activities using a luminometer or spectrophotometer, respectively. For each replicate, the normalized response (NR) was calculated as: […]

PR [2] = target: T1, PR; assay: co-transfection assay, PR agonist
Experimental: as §1, §2, §3

GR = target: T2, GR (Homo sapiens, UniProt P04150); assay: co-transfection assay, GR antagonist
T2 construct: expressed in transfected cells; host or cells: CV-1 cells
T2 sequence (P04150 1-777): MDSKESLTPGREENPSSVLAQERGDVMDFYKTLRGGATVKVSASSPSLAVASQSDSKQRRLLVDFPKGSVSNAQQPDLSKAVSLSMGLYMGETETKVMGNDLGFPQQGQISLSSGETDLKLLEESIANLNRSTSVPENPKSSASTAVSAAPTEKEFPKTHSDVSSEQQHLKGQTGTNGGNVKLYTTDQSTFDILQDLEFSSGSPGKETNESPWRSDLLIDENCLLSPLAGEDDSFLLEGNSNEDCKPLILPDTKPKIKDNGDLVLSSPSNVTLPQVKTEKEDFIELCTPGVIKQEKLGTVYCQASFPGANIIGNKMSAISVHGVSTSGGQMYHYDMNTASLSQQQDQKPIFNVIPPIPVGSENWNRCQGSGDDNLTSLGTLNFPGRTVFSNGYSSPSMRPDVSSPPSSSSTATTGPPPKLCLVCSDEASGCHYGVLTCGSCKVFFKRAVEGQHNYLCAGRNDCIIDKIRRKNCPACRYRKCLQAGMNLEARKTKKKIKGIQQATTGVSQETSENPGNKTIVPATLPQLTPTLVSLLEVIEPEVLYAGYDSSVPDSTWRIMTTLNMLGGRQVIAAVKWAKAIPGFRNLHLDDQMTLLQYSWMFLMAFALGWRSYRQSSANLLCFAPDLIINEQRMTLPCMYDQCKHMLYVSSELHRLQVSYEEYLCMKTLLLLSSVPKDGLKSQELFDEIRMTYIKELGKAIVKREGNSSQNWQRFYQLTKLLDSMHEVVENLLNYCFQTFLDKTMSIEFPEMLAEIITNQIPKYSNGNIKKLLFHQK
Experimental: as §1, §2, §3

ER [3] = target: T3, ER (Homo sapiens, UniProt P03372); assay: co-transfection assay, ER agonist
T3 construct: expressed in transfected cells; host or cells: CV-1 cells
T3 sequence (P03372 whole entry): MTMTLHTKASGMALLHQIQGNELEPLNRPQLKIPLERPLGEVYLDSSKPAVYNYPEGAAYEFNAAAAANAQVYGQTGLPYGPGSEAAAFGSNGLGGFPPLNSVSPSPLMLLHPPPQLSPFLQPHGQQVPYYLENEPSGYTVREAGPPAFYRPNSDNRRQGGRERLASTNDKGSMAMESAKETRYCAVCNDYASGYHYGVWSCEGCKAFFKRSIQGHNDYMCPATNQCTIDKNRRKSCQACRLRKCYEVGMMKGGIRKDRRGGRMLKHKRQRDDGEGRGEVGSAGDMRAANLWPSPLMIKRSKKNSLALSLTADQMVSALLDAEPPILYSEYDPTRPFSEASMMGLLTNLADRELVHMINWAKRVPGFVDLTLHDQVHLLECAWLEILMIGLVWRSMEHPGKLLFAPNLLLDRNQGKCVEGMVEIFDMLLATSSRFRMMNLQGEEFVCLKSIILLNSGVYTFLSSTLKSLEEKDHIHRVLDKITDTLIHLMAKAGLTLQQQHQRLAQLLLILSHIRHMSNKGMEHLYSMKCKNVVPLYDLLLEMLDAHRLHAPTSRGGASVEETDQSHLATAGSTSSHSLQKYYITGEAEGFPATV
Experimental: as §1, §2, §3

MR = target: T4, MR (Homo sapiens, UniProt P08235); assay: co-transfection assay, MR antagonist
T4 construct: expressed in transfected cells; host or cells: CV-1 cells
T4 sequence (P08235 1-984): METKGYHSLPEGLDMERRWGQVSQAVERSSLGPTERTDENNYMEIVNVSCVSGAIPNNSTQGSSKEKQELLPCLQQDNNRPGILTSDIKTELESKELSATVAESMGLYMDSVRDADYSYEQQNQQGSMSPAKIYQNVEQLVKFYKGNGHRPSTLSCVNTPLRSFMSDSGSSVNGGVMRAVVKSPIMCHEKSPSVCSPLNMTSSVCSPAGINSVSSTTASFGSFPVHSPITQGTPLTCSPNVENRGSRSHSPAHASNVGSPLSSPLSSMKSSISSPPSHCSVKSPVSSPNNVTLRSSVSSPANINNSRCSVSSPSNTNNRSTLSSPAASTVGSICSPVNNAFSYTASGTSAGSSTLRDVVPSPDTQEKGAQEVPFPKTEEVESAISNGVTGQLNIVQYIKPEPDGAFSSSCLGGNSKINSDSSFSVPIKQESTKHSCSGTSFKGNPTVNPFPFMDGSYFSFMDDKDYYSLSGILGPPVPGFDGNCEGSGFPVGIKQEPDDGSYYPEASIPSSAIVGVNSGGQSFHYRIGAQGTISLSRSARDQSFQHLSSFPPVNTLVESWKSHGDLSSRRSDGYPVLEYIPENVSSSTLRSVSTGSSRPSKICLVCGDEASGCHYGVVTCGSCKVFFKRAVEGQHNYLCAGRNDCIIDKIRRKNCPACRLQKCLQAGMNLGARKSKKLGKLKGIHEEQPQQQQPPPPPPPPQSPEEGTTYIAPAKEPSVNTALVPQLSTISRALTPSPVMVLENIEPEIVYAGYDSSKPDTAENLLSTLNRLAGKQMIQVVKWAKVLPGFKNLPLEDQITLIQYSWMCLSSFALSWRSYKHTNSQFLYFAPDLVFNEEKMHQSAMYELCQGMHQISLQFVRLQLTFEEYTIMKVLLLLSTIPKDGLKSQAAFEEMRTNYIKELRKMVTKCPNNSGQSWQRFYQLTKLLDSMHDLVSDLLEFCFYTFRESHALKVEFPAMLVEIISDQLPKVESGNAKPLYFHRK
Experimental: as §1, §2, §3

ER [4] = target: T3, ER; assay: co-transfection assay, ER antagonist
Experimental: as §1, §2, §3

hAR [5] = target: T5, hAR (Homo sapiens, UniProt P10275); assay: co-transfection assay, AR antagonist (in presence of DHT), CV-1 cells
T5 construct: expressed in transfected cells; host or cells: CV-1 cells (African green monkey kidney fibroblasts)
T5 sequence (P10275 1-920): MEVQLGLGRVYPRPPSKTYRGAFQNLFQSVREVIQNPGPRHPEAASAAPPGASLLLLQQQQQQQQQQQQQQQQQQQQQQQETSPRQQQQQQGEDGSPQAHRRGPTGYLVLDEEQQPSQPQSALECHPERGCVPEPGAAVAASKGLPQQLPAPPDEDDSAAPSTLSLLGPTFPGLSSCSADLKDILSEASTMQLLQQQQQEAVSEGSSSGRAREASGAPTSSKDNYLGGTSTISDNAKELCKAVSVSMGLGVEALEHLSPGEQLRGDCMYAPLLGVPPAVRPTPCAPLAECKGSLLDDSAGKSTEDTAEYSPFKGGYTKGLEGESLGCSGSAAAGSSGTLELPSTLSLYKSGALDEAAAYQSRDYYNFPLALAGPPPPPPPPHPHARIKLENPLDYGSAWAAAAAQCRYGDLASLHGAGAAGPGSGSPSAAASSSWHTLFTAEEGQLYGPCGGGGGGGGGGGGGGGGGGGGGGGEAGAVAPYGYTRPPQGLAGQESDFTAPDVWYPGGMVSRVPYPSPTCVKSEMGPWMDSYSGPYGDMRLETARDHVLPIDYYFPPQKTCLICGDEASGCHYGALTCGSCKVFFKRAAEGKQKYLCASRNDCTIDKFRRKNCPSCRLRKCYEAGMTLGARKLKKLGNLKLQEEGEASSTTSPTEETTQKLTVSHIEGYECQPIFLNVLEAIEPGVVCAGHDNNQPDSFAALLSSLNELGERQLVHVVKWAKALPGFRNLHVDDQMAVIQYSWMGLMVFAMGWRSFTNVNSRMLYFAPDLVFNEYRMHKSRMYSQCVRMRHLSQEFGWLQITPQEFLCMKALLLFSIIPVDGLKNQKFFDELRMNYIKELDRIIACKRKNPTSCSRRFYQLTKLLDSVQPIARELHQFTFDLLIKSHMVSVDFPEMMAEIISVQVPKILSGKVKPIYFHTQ

hAR [6] = target: T5, hAR; assay: co-transfection assay, AR agonist, CV-1 cells

In the case of `CC1CN(CC(F)(F)F)c2cc3c(C(F)(F)F)cc(=O)[nH]c3cc2O1` (racemic) [Compound 114, (±)-1,2,3,6-Tetrahydro-3-methyl-1-(2,2,2-trifluoroethyl)-9-(trifluoromethyl)-7H-[1,4]oxazino[3,2-g]quinolin-7-one], the IC50 (PR [1]) is reported as > 10 µM, the EC50 (PR [2]) is reported as > 10 µM and the IC50 (GR) is reported as > 10 µM. The EC50 (ER [3]) was > 10 µM, the IC50 (MR) was > 10 µM and the IC50 (ER [4]) was > 10 µM.
With `CC1COc2cc3[nH]c(=O)cc(C(F)(F)F)c3cc2N1CC(F)(F)F` (racemic) [Compound 123, (±)-1,2,3,6-Tetrahydro-2-methyl-1-(2,2,2-trifluoroethyl)-9-(trifluoromethyl)-7H-[1,4]oxazino[3,2-g]quinolin-7-one] the IC50 (PR [1]) was 2.47 µM, the IC50 (hAR [5]) was > 10 µM and the “AR Antagonist CV-1 Cells Efficacy (%)” value (hAR [5]; hAR in CV-1 cells, maximal inhibition, DHT at EC50) was “na (na = not active (i.e. efficacy of < 20 and potency of > 10,000 nM for the cotransfection assay, and Ki > 1000 nM for the binding assay))”. The IC50 (hAR [5]; read-out: AR Potency Antag, Table 2) was > 10 µM, the EC50 (PR [2]) was > 10 µM and the IC50 (GR) was 3.16 µM. The EC50 (ER [3]) was > 10 µM, the EC50 (hAR [6]; AR Agonist CV-1 Cells Potency (nM), hAR in CV-1 cells) was 3.4 nM and the EC50 (hAR [6]; AR Potency Agon (nM), Table 2) was 3.4 nM. For the same molecule, the “AR Agonist CV-1 Cells Efficacy (%)” value (hAR [6]; hAR in CV-1 cells, relative to maximum LUC production by reference agonist) was 91% and the IC50 (ER [4]) was > 10 µM.
With `CN1CCOc2cc3[nH]c(=O)cc(C(F)(F)F)c3cc21` [Compound 101, 1,2,3,6-Tetrahydro-1-methyl-9-(trifluoromethyl)-7H-[1,4]oxazino[3,2-g]quinolin-7-one] the IC50 (PR [1]) was > 10 µM, the EC50 (PR [2]) was > 10 µM and the IC50 (GR) was 6.5 µM. For the same molecule, the EC50 (ER [3]) was > 10 µM, the IC50 (MR) was > 10 µM and the IC50 (ER [4]) was > 10 µM.
`CCN1CCOc2cc3[nH]c(=O)cc(C(F)(F)F)c3cc21` [Compound 103, 1-Ethyl-1,2,3,6-tetrahydro-9-(trifluoromethyl)-7H-[1,4]oxazino[3,2-g]quinolin-7-one] was tested, and the IC50 (PR [1]) was 4.5 µM, the EC50 (PR [2]) was > 10 µM and the IC50 (GR) was > 10 µM. For the same molecule, the EC50 (ER [3]) was > 10 µM, the IC50 (MR) was > 10 µM and the IC50 (ER [4]) was > 10 µM.
For `O=c1cc(C(F)(F)F)c2cc3c(cc2[nH]1)OCCN3CC1CC1` [Compound 121, 1-Cyclopropylmethyl-1,2,3,6-tetrahydro-9-(trifluoromethyl)-7H-[1,4]oxazino[3,2-g]quinolin-7-one], the IC50 (PR [1]) was 0.415 µM, the EC50 (PR [2]) was > 10 µM and the IC50 (GR) was 1.05 µM. For the same molecule, the EC50 (ER [3]) was > 10 µM, the IC50 (MR) was 2.57 µM and the IC50 (ER [4]) was > 10 µM.
Molecule `C[C@]1(O)CC[C@H]2[C@@H]3CCC4=CC(=O)CC[C@]4(C)[C@@]3(F)[C@@H](O)C[C@@]21C` [Fluox, fluoxymesterone] has an IC50 (PR [1]) of 0.224 µM, an EC50 (PR [2]) of 1.21 µM and an IC50 (GR) of 0.263 µM. For the same molecule, the IC50 (MR) was 0.193 µM.
In the case of `CC(C)(O)C(=O)Nc1ccc([N+](=O)[O-])c(C(F)(F)F)c1` [Flut, 2-hydroxyflutamide, reference compound], the EC50 (ER [3]; Table 2, read-out: ER Potency Agon) is reported as > 10 µM and the IC50 (ER [4]; Table 2, read-out: ER Potency Antag) is reported as > 10 µM.
